Results taken from PubChem BioAssay AID2060891 (Molecular Pharmacology Branch, DTP, NCI, 2025).
Several values for one entry are separate records, joined by “and”; a condition that tells them apart may be missing. Identical values can stand only once.

Tested on: K98450-129-R-PDC complex spheroid growth, percent test/control
Assay: Anticancer human tumor K98450-129-R-PDC patient-derived colon adenocarcinoma cell line growth inhibition [RAS]
Settings: for viability, T/C: stronger effect = lower value
In short: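 Tumour cells grown as complex spheroids with HUVEC endothelial cells and mesenchymal stem cells, treated with RAS pathway inhibitor combinations. Each agent spans half-log steps from near clinical Cmax, or 10 microM where Cmax is unknown.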

[1] = curve of first compound, second compound 0.0316 µM
[2] = curve of first compound, second compound 0.1 µM
[3] = curve of first compound, second compound 0.316 µM
[4] = curve of first compound, second compound 1 µM
[5] = second compound 0.0316 µM, first compound 0.00316 µM
[6] = second compound 0.0316 µM, first compound 0.01 µM
[7] = second compound 0.0316 µM, first compound 0.0316 µM
[8] = second compound 0.0316 µM, first compound 0.1 µM
[9] = second compound 0.0316 µM, first compound 0.316 µM
[10] = second compound 0.0316 µM, first compound 1 µM
[11] = second compound 0.1 µM, first compound 0.00316 µM
[12] = second compound 0.1 µM, first compound 0.01 µM
[13] = second compound 0.1 µM, first compound 0.0316 µM
[14] = second compound 0.1 µM, first compound 0.1 µM
[15] = second compound 0.1 µM, first compound 0.316 µM
[16] = second compound 0.1 µM, first compound 1 µM
[17] = second compound 0.316 µM, first compound 0.00316 µM
[18] = second compound 0.316 µM, first compound 0.01 µM
[19] = second compound 0.316 µM, first compound 0.0316 µM
[20] = second compound 0.316 µM, first compound 0.1 µM
[21] = second compound 0.316 µM, first compound 0.316 µM
[22] = second compound 0.316 µM, first compound 1 µM
[23] = second compound 1 µM, first compound 0.00316 µM
[24] = second compound 1 µM, first compound 0.01 µM
[25] = second compound 1 µM, first compound 0.0316 µM
[26] = second compound 1 µM, first compound 0.1 µM
[27] = second compound 1 µM, first compound 0.316 µM
[28] = second compound 1 µM, first compound 1 µM
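Note: spheroids exposed to agents for seven days before the viability readout.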
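Throughout, for viability, T/C: luminescence used as a proxy for viable cell amount.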

## Nc1ccn(C2OC(CO)C(O)C2(F)F)c(=O)n1 (centres undefined) + C#Cc1c(F)ccc2cc(O)cc(-c3ncc4c(N5CC6CCC(C5)N6)nc(OCC56CCCN5CC(F)C6)nc4c3F)c12
[1]
  IC50: 72.2 nM
[2]
  IC50: 87.7 nM
[3]
  IC50: 83.8 nM
[4]
  IC50: 74.2 nM
Curve of first compound, second compound 3.16 µM
  IC50: 90.5 nM
Curve of first compound, second compound 10 µM
  IC50: 87.5 nM
[5]
  viability, T/C: 109%
[6]
  viability, T/C: 99.1%
[7]
  viability, T/C: 65.4%
[8]
  viability, T/C: 44.8%
[9]
  viability, T/C: 35.6%
[10]
  viability, T/C: 29.6%
[11]
  viability, T/C: 115%
[12]
  viability, T/C: 106%
[13]
  viability, T/C: 73.5%
[14]
  viability, T/C: 47%
[15]
  viability, T/C: 37.8%
[16]
  viability, T/C: 29.7%
[17]
  viability, T/C: 107%
[18]
  viability, T/C: 96.3%
[19]
  viability, T/C: 75.4%
[20]
  viability, T/C: 44.4%
[21]
  viability, T/C: 33.9%
[22]
  viability, T/C: 30.5%
[23]
  viability, T/C: 101%
[24]
  viability, T/C: 94.7%
[25]
  viability, T/C: 68.1%
[26]
  viability, T/C: 43.3%
[27]
  viability, T/C: 38%
[28]
  viability, T/C: 31.9%
Second compound 3.16 µM, first compound 0.00316 µM
  viability, T/C: 95.7%
Second compound 3.16 µM, first compound 0.01 µM
  viability, T/C: 90%
Second compound 3.16 µM, first compound 0.0316 µM
  viability, T/C: 70.2%
Second compound 3.16 µM, first compound 0.1 µM
  viability, T/C: 46.9%
Second compound 3.16 µM, first compound 0.316 µM
  viability, T/C: 39.5%
Second compound 3.16 µM, first compound 1 µM
  viability, T/C: 31.1%
Second compound 10 µM, first compound 0.00316 µM
  viability, T/C: 92.5%
Second compound 10 µM, first compound 0.01 µM
  viability, T/C: 87.9%
Second compound 10 µM, first compound 0.0316 µM
  viability, T/C: 71.6%
Second compound 10 µM, first compound 0.1 µM
  viability, T/C: 46.6%
Second compound 10 µM, first compound 0.316 µM
  viability, T/C: 37.2%
Second compound 10 µM, first compound 1 µM
  viability, T/C: 32.4%

## C=CC(=O)Nc1cc(Nc2nccc(-c3cn(C)c4ccccc34)n2)c(OC)cc1N(C)CCN(C)C + C=CC(=O)N1CCN(c2nc(OCC3CCCN3C)nc3c(F)c(-c4nc(N)cc(C)c4C(F)(F)F)c(Cl)cc23)C(C)C1
Curve of first compound, second compound 0.00316 µM
  IC50: 194 nM
Curve of first compound, second compound 0.01 µM
  IC50: 151 nM
[1]
  IC50: 54.3 nM
[2]
  IC50: 10.5 nM
[3]
  IC50: < 3.16 nM
[4]
  IC50: < 3.16 nM
Second compound 0.00316 µM, first compound 0.00316 µM
  viability, T/C: 93.5%
Second compound 0.00316 µM, first compound 0.01 µM
  viability, T/C: 85.9%
Second compound 0.00316 µM, first compound 0.0316 µM
  viability, T/C: 91%
Second compound 0.00316 µM, first compound 0.1 µM
  viability, T/C: 83.5%
Second compound 0.00316 µM, first compound 0.316 µM
  viability, T/C: 25.5%
Second compound 0.00316 µM, first compound 1 µM
  viability, T/C: 9.6%
Second compound 0.01 µM, first compound 0.00316 µM
  viability, T/C: 94.4%
Second compound 0.01 µM, first compound 0.01 µM
  viability, T/C: 78%
Second compound 0.01 µM, first compound 0.0316 µM
  viability, T/C: 85.2%
Second compound 0.01 µM, first compound 0.1 µM
  viability, T/C: 71.3%
Second compound 0.01 µM, first compound 0.316 µM
  viability, T/C: 11.4%
Second compound 0.01 µM, first compound 1 µM
  viability, T/C: 8.81%
[5]
  viability, T/C: 70.3%
[6]
  viability, T/C: 70.4%
[7]
  viability, T/C: 63.6%
[8]
  viability, T/C: 34.3%
[9]
  viability, T/C: 9.39%
[10]
  viability, T/C: 8.93%
[11]
  viability, T/C: 56.3%
[12]
  viability, T/C: 47.9%
[13]
  viability, T/C: 38.7%
[14]
  viability, T/C: 17.6%
[15]
  viability, T/C: 8.42%
[16]
  viability, T/C: 8.07%
[17]
  viability, T/C: 39%
[18]
  viability, T/C: 34.4%
[19]
  viability, T/C: 29.3%
[20]
  viability, T/C: 13.7%
[21]
  viability, T/C: 10.3%
[22]
  viability, T/C: 9.33%
[23]
  viability, T/C: 30.4%
[24]
  viability, T/C: 27.1%
[25]
  viability, T/C: 22.6%
[26]
  viability, T/C: 13.8%
[27]
  viability, T/C: 10.9%
[28]
  viability, T/C: 9.84%

## Nc1ccn(C2OC(CO)C(O)C2(F)F)c(=O)n1 (centres undefined)
Compound 0.00316 µM
  viability, T/C: 80.7% and 103% (2×) and 107%
Compound 0.01 µM
  viability, T/C: 96.2% [middle of 4 runs]
Compound 0.0316 µM
  viability, T/C: 78.8% [middle of 4 runs]
Compound 1 µM
  viability, T/C: 49.4% [middle of 4 runs]

## C=CC(=O)N1CCN(c2nc(OCC3CCCN3C)nc3c(F)c(-c4nc(N)cc(C)c4C(F)(F)F)c(Cl)cc23)C(C)C1 (centres undefined)
Compound 0.00316 µM
  viability, T/C: 97.9% [middle of 12 runs]
Compound 0.01 µM, compound 0.0316 µM
  viability, T/C: 70.9%
Compound 0.01 µM, compound 0.1 µM
  viability, T/C: 59.3%
Compound 0.01 µM, compound 0.316 µM
  viability, T/C: 39.6%
Compound 0.01 µM, compound 1 µM
  viability, T/C: 29%
Compound 0.0316 µM, compound 0.00316 µM
  viability, T/C: 71.2%
Compound 0.0316 µM, compound 0.01 µM
  viability, T/C: 65.5%
Compound 0.0316 µM, compound 0.1 µM
  viability, T/C: 51.4%
Compound 0.0316 µM, compound 0.316 µM
  viability, T/C: 42.2%
Compound 0.0316 µM, compound 1 µM
  viability, T/C: 28.1%
Compound 0.0316 µM
  viability, T/C: 71.5% [middle of 13 runs]
Compound 0.1 µM, compound 0.00316 µM
  viability, T/C: 54.4%
Compound 0.1 µM, compound 0.01 µM
  viability, T/C: 52.5%
Compound 0.1 µM, compound 0.0316 µM
  viability, T/C: 56.5%
Compound 0.1 µM, compound 0.316 µM
  viability, T/C: 41.4%
Compound 0.1 µM, compound 1 µM
  viability, T/C: 30.8%
Compound 0.1 µM
  viability, T/C: 53.1% [middle of 13 runs]
Compound 0.316 µM, compound 0.00316 µM
  viability, T/C: 40.9%
Compound 0.316 µM, compound 0.01 µM
  viability, T/C: 38.6%
Compound 0.316 µM, compound 0.0316 µM
  viability, T/C: 43.2%
Compound 0.316 µM, compound 0.1 µM
  viability, T/C: 38.7%
Compound 0.316 µM, compound 1 µM
  viability, T/C: 31.3%
Compound 0.316 µM
  viability, T/C: 40.2% [middle of 13 runs]
Compound 1 µM, compound 0.00316 µM
  viability, T/C: 31.1%
Compound 1 µM, compound 0.01 µM
  viability, T/C: 35.5%
Compound 1 µM, compound 0.0316 µM
  viability, T/C: 31.5%
Compound 1 µM, compound 0.1 µM
  viability, T/C: 30.9%
Compound 1 µM, compound 0.316 µM
  viability, T/C: 33.1%
Compound 1 µM
  viability, T/C: 34% [middle of 13 runs]
Compound alone, run of 06/10/2024
  IC50: 148 nM [middle of 8 runs]
Curve of compound
  IC50: 144 nM [middle of 4 runs]
